{
  "source": "patent US12357698B1",
  "about": "“FUS proteolysis-targeting chimera, preparation method and applications thereof” (SHANDONG NORMAL UNIVERSITY, priority 2024, dated 2025)",
  "type_in_all_cases": "cell-based",
  "key": {"FUS-R521C": {"target": "T1, FUS-R521C (Homo sapiens, UniProt P35637, R521C)", "T1 construct": "expressed in transfected cells; host or cells: 293T cells", "T1 sequence (P35637 1-526 R521C)": "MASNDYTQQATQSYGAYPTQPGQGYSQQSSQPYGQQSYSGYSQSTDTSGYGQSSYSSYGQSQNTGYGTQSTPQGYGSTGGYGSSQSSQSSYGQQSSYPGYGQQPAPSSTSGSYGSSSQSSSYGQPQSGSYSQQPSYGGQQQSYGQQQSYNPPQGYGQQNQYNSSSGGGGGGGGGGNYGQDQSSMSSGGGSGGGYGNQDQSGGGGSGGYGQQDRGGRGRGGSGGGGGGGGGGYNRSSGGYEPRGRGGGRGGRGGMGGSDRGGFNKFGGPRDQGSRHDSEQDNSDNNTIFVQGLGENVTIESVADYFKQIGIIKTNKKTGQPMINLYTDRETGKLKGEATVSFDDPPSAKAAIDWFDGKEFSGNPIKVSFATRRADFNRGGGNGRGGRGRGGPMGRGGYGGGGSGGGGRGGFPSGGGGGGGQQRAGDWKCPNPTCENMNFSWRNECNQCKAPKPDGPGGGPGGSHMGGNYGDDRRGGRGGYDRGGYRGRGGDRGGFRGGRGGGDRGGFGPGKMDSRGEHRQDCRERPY", "assay": "Degradation of mutant FUS-R521C in 293T cells, Western blot", "conditions": "1000 nM, 24 hours", "procedure": "(§1) dFUS-C1 solutions were prepared at concentration gradients of 37.5 nM, 62.5 nM, 125 nM, 250 nM, 500 nM, 1000 nM, and 2000 nM, and were transfected into 293T cells expressing different mutant FUS proteins using liposomes. After 24 hours, the cells were lysed, and changes in FUS protein were detected by Western blot. FIG. 11A to FIG. 11E show the degradation of different mutant FUS by dFUS-C1 in 293T cells."}, "FUS-R521H": {"target": "T2, FUS-R521H (Homo sapiens, UniProt P35637, R521H)", "T2 construct": "expressed in transfected cells; host or cells: 293T cells", "T2 sequence (P35637 1-526 R521H)": "T1 sequence (P35637 1-526 R521C) with C521H", "assay": "Degradation of mutant FUS-R521H in 293T cells, Western blot", "conditions": "1000 nM, 24 hours", "procedure": "as §1"}, "FUS-WT": {"target": "T3, FUS-WT (Homo sapiens, UniProt P35637)", "T3 construct": "expressed in transfected cells; host or cells: 293T cells", "T3 sequence (P35637 1-526)": "T1 sequence (P35637 1-526 R521C) with C521R", "assay": "Degradation of FUS-WT in 293T cells, Western blot", "conditions": "1000 nM, 24 hours"}, "FUS protein [1]": {"target": "T4, FUS protein (Homo sapiens, UniProt P35637)", "T4 construct": "endogenous in cells; host or cells: SH-SY5Y cells", "T4 sequence (P35637 1-526)": "T1 sequence (P35637 1-526 R521C) with C521R", "assay": "FUS degradation in SH-SY5Y cells, Western blot", "conditions": "concentration gradient 9.4-125 nM, liposome transfection, 24 hours", "procedure": "(§2) dFUS-C1 solutions were prepared at concentration gradients of 9.4 nM, 18.7 nM, 37.5 nM, 62.5 nM, and 125 nM, and were transfected into PC12 or SH-SY5Y cells using liposomes. After 24 hours, the cells were lysed, and changes in FUS protein were detected by Western blot.\nThen 15% non-denaturing polyacrylamide gel electrophoresis was performed at 120 V for about 70 min, followed by staining with SYBR Gold nucleic acid gel stain, and finally imaged using a Bio-RAD instrument. […] For testing the FUS protein degradation performance of dFUS-PS, dFUS-PS solutions were prepared at concentration gradients of 9.4 nM, 18.7 nM, 37.5 nM, 62.5 nM, and 125 nM, and were transfected into SH-SY5Y cells using liposomes. After 24 hours, the cells were lysed, and changes in FUS protein were detected by Western blot."}, "FUS protein [2]": {"target": "T5, FUS protein (Rattus norvegicus, UniProt Q5PQK2)", "T5 construct": "endogenous in cells; host or cells: PC12 cells", "T5 sequence (Q5PQK2 1-515)": "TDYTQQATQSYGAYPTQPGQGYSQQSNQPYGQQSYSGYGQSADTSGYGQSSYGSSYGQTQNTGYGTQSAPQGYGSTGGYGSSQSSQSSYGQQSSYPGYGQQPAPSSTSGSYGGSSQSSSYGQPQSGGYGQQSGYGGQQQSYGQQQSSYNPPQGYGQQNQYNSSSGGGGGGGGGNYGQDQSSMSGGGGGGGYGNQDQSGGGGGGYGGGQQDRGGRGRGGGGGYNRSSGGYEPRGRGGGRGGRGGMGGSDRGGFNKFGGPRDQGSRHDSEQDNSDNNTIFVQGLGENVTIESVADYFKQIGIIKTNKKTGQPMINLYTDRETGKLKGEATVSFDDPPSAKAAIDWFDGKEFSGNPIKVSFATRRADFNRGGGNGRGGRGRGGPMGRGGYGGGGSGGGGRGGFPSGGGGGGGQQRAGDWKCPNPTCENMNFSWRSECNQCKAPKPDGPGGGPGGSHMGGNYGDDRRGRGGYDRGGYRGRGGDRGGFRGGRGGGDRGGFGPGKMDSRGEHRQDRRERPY", "assay": "FUS degradation in PC12 cells, Western blot", "conditions": "liposome transfection, 24 hours", "procedure": "The 10 PROTACs were transfected into PC12 cells at a final concentration of 125 nM using liposomes. After 24 hours, the cells were lysed, and changes in FUS protein were detected by Western blot.\nas §2"}, "FUS-R521G": {"target": "T6, FUS-R521G (Homo sapiens, UniProt P35637, R521G)", "T6 construct": "expressed in transfected cells; host or cells: 293T cells", "T6 sequence (P35637 1-526 R521G)": "T1 sequence (P35637 1-526 R521C) with C521G", "assay": "Degradation of mutant FUS-R521G in 293T cells, Western blot", "conditions": "1000 nM, 24 hours", "procedure": "as §1"}, "SH-SY5Y cells": {"system": "SH-SY5Y cells", "assay": "Neurotoxicity caused by FUS overexpression (ROS, LDH release, CCK8)", "conditions": "SH-SY5Y cells transfected with FUS plasmids, CCK8 cell viability", "procedure": "In this example, ROS detection kit, LDH release detection kit, and CCK8 reagent were used for cytotoxicity detection. Specifically: 5×10^3 SH-SY5Y cells were added to 96-well plates and cultured at 37° C., 5% CO2 cell incubator for 12 hours; FUS plasmids were transfected into the wells, then the cells were cultured at 37° C., 5% CO2 cell incubator for 24 hours, indicated reagents were added to each well, and corresponding indicators were detected according to the kit instructions."}, "FUS-P525L": {"target": "T7, FUS-P525L (Homo sapiens, UniProt P35637, P525L)", "T7 construct": "expressed in transfected cells; host or cells: 293T cells", "T7 sequence (P35637 1-526 P525L)": "T1 sequence (P35637 1-526 R521C) with C521R, P525L", "assay": "Degradation of mutant FUS-P525L in 293T cells, Western blot", "conditions": "1000 nM, 24 hours", "procedure": "as §1"}, "FUS protein [3]": {"system": "FUS protein", "assay": "Proteomics before and after dFUS-C1 treatment"}},
  "note": "Residue numbers refer to the chain shown, from its start.",
  "data": [
    {"substance": "dFUS-C1: PROTAC obtained by coupling FUS-1 (N3-FUS-RNA #1, SEQ ID NO: 1) with CRBN ligand (GUUUGGUGAUGUUUGGUGAU; RNA, backbone not given here; 5' azide via C6 amino linker, click-coupled to CRBN ligand (PROTAC))", "values": [
      {"measurement": "degradation of FUS-R521C", "setting": "FUS-R521C", "result": "could efficiently degrade"},
      {"measurement": "degradation of FUS-R521H", "setting": "FUS-R521H", "result": "could efficiently degrade"},
      {"measurement": "degradation of FUS-WT", "setting": "FUS-WT", "result": "could efficiently degrade"},
      {"measurement": "degradation of FUS protein", "setting": "FUS protein [1]", "result": "could efficiently degrade FUS protein"},
      {"measurement": "degradation of FUS protein", "setting": "FUS protein [2]; 125 nM", "result": "stably and efficiently degrade FUS protein"},
      {"measurement": "degradation of FUS protein", "setting": "FUS protein [2]; concentration gradient 9.4-125 nM", "result": "could efficiently degrade FUS protein"},
      {"measurement": "degradation of FUS-R521G", "setting": "FUS-R521G", "result": "could efficiently degrade"},
      {"measurement": "neurotoxicity caused by FUS overexpression", "setting": "SH-SY5Y cells", "result": "significantly inhibited the neurotoxicity caused by FUS overexpression"},
      {"measurement": "degradation of FUS-P525L", "setting": "FUS-P525L", "result": "could efficiently degrade"},
      {"measurement": "specificity of degradation (proteomics)", "setting": "FUS protein [3]", "result": "specific degradation effects on FUS protein"}
    ]}
  ]
}
